Assays:
[1] = tested on: thyroid-stimulating hormone concentration in the plasma; test: Evaluation of thyroid-stimulating hormone secretion promoting effect (plasma TSH, 24-week oral ingestion); type: in vivo, human; settings: for thyroid-stimulating hormone concentration in the plasma, 0 weeks (before ingestion) / thyroid-stimulating hormone concentration in the plasma, 24 weeks (after ingestion) / thyroid-stimulating hormone concentration in the plasma, Change rate (24 weeks - 0 weeks): High Dose Group (200 mg/daily, oral), mean±SD; for thyroid-stimulating hormone concentration in the plasma, 0 weeks (before ingestion): baseline
Procedure: In order to confirm a change in the thyroid-stimulating hormone quantity before and after ingestion of the nicotinamide mononucleotide, a test was conducted on healthy males and females aged 50 to 70 years.
As a sample of Working Example 4, a capsule formulation containing the nicotinamide mononucleotide and starch (200 mg of the nicotinamide mononucleotide in 4 capsules) (manufactured by SHINKOWA PHARMACEUTICAL Co., Ltd.) was used.
(§1) Each group consisting of five healthy males and females aged 50 to 70 years in an unbiased age group ingested the above capsule formulation once a day by 4 capsules for 24 weeks (total 10 subjects, 200 mg/daily ingestion). In order to conduct appropriate evaluations, those who had been regularly using medical products for chronic diseases, those who had been consuming healthy foods that may affect clinical research, and those who were currently participating in other clinical researches or clinical trials or had participated in other clinical researches or clinical trials within the last three months were excluded from the subject for the evaluation. The capsule formulations were ingested at 10 am (between meals and fasting state) together with water or lukewarm water (oral administration).
Measurement of the thyroid-stimulating hormone quantity in the plasma was conducted by requesting the measurement to an external public organization according to a usual method. FIGS. 8a to 8c indicate transitions of the thyroid-stimulating hormone concentration (μU/ml) in the plasma for 24 weeks. FIG. 8a represents the transitions of the whole subjects; FIG. 8b represents the transitions of the male subjects; FIG. 8c represents the transitions of the female subjects. Further, FIGS. 9a to 9c indicate change rates (%) of the blood thyroid-stimulating hormone concentration up to 24 weeks when the nicotinamide mononucleotide was orally administered to the subjects for 24 weeks. FIG. 9a represents the change rates of the whole subjects; FIG. 9b represents the change rates of the male subjects; FIG. 9c represents the change rates of the female subjects. Further, Table 4 indicates the numerical values of the thyroid-stimulating hormone concentration (μU/ml) in the plasma before the ingestion of the nicotinamide mononucleotide (0 weeks) and after the ingestion of the nicotinamide mononucleotide (24 weeks). Note that the numerical values represent mean values±standard deviation.

[2] = tested on: parathyroid hormone concentration in the plasma; test: Evaluation of parathyroid hormone secretion promoting effect (plasma parathyroid hormone, 24-week oral ingestion); type: in vivo, human; settings: for parathyroid hormone concentration in the plasma, 0 weeks (before ingestion): baseline; for parathyroid hormone concentration in the plasma, 0 weeks (before ingestion) / parathyroid hormone concentration in the plasma, 24 weeks (after ingestion) / parathyroid hormone concentration in the plasma, Change rate (24 weeks - 0 weeks): mean±SD
Procedure: In order to confirm a change in the parathyroid hormone quantity before and after ingestion of the nicotinamide mononucleotide, a test was conducted on healthy males and females aged 50 to 70 years.
As a sample of Working Example 6, a capsule formulation containing the nicotinamide mononucleotide and starch (100 mg (low dose) and 200 mg (high dose) of the nicotinamide mononucleotide in 4 capsules) (manufactured by SHINKOWA PHARMACEUTICAL Co., Ltd.) was used.
as §1, with “above low dose” for “above”, “subjects, a low dose group: 100 mg/daily ingestion). On the other hand, each group consisting of five healthy males and females aged 50 to 70 years in the unbiased age group ingested the above high dose capsule formulation once a day by 4 capsules for 24 weeks (total 10 subjects, a high dose group:” for “subjects,”
Measurement of the parathyroid hormone quantity in the plasma was conducted by requesting the measurement to an external public organization according to a usual method. FIGS. 12a to 12c indicate transitions of the parathyroid hormone concentration (pg/ml) in the plasma for 24 weeks. FIG. 12a represents the transitions of the whole subjects; FIG. 12b represents the transitions of the male subjects; FIG. 12c represents the transitions of the female subjects. Further, FIGS. 13a to 13c indicate change rates (%) of the blood parathyroid hormone concentration up to 24 weeks when the nicotinamide mononucleotide was orally administered to the subjects for 24 weeks. FIG. 13a represents the change rates of the whole subjects; FIG. 13b represents the change rates of the male subjects; FIG. 13c represents the change rates of the female subjects. Further, Table 6 indicates the numerical values of the parathyroid hormone concentration (pg/ml) in the plasma before the ingestion of the nicotinamide mononucleotide (0 weeks) and after the ingestion of the nicotinamide mononucleotide (24 weeks). Note that the numerical values represent mean values±standard deviation.

[3] = Female, High Dose Group (200 mg/daily, oral)
[4] = Female, Low Dose Group (100 mg/daily, oral)
[5] = Male, High Dose Group (200 mg/daily, oral)
[6] = Male, Low Dose Group (100 mg/daily, oral)
[7] = Whole Subjects, High Dose Group (200 mg/daily, oral)
[8] = Whole Subjects, Low Dose Group (100 mg/daily, oral)

## NC(=O)c1ccc[n+]([C@@H]2O[C@H](COP(=O)([O-])O)[C@@H](O)[C@H]2O)c1 [nicotinamide mononucleotide]
[1]; Female
  thyroid-stimulating hormone concentration in the plasma, 0 weeks (before ingestion): 2.56 ± 1.27 μU/ml
  thyroid-stimulating hormone concentration in the plasma, 24 weeks (after ingestion): 2.61 ± 1.15 μU/ml
  thyroid-stimulating hormone concentration in the plasma, Change rate (24 weeks - 0 weeks): 0.05 ± 0.98 μU/ml
[1]; Male
  thyroid-stimulating hormone concentration in the plasma, 0 weeks (before ingestion): 2.57 ± 1.65 μU/ml
  thyroid-stimulating hormone concentration in the plasma, 24 weeks (after ingestion): 2.97 ± 1.52 μU/ml
  thyroid-stimulating hormone concentration in the plasma, Change rate (24 weeks - 0 weeks): 0.40 ± 1.38 μU/ml
[1]; Whole Subjects
  thyroid-stimulating hormone concentration in the plasma, 0 weeks (before ingestion): 2.57 ± 1.39 μU/ml
  thyroid-stimulating hormone concentration in the plasma, 24 weeks (after ingestion): 2.79 ± 1.29 μU/ml
  thyroid-stimulating hormone concentration in the plasma, Change rate (24 weeks - 0 weeks): 0.23 ± 1.14 μU/ml
[1]; oral, 200 mg/daily, 24 weeks, FIGS. 8a-8c, 9a-9c
  thyroid-stimulating hormone concentrations in the plasma, effect of ingestion (in words): increased
[2]; [3]
  parathyroid hormone concentration in the plasma, 0 weeks (before ingestion): 384 ± 88 pg/mL
  parathyroid hormone concentration in the plasma, 24 weeks (after ingestion): 448 ± 114 pg/mL
  parathyroid hormone concentration in the plasma, Change rate (24 weeks - 0 weeks): 64 ± 65 pg/mL
[2]; [4]
  parathyroid hormone concentration in the plasma, 0 weeks (before ingestion): 328 ± 45 pg/mL
  parathyroid hormone concentration in the plasma, 24 weeks (after ingestion): 394 ± 63 pg/mL
  parathyroid hormone concentration in the plasma, Change rate (24 weeks - 0 weeks): 66 ± 34 pg/mL
[2]; [5]
  parathyroid hormone concentration in the plasma, 0 weeks (before ingestion): 410 ± 108 pg/mL
  parathyroid hormone concentration in the plasma, 24 weeks (after ingestion): 438 ± 168 pg/mL
  parathyroid hormone concentration in the plasma, Change rate (24 weeks - 0 weeks): 28 ± 77 pg/mL
[2]; [6]
  parathyroid hormone concentration in the plasma, 0 weeks (before ingestion): 344 ± 69 pg/mL
  parathyroid hormone concentration in the plasma, 24 weeks (after ingestion): 386 ± 108 pg/mL
  parathyroid hormone concentration in the plasma, Change rate (24 weeks - 0 weeks): 42 ± 73 pg/mL
[2]; [7]
  parathyroid hormone concentration in the plasma, 0 weeks (before ingestion): 397 ± 94 pg/mL
  parathyroid hormone concentration in the plasma, 24 weeks (after ingestion): 443 ± 135 pg/mL
  parathyroid hormone concentration in the plasma, Change rate (24 weeks - 0 weeks): 46 ± 70 pg/mL
[2]; [8]
  parathyroid hormone concentration in the plasma, 0 weeks (before ingestion): 336 ± 56 pg/mL
  parathyroid hormone concentration in the plasma, 24 weeks (after ingestion): 390 ± 84 pg/mL
  parathyroid hormone concentration in the plasma, Change rate (24 weeks - 0 weeks): 54 ± 55 pg/mL
[2]; oral, 100 or 200 mg/daily, 24 weeks, FIGS. 12a-12c, 13a-13c
  parathyroid hormone concentrations in the plasma, effect of ingestion (in words): increased

From patent publication US20220031596A1, “ANTI-AGING AGENT AND ANTI-AGING METHOD” (priority 2018, published 2022)
